# Laboratory results published in PubChem BioAssay (NCI).
#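 Results reflect a 48-hour exposure of cells in 96-well plates to compound at five concentrations. GI50 = concentration required for 50% inhibition of growth. TGI marks complete inhibition of growth.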
# Experiments:
# Assay in all cases: inhibition of tumour cell growth, NCI panel, 48 h
# MALME-3M melanoma = system: MALME-3M melanoma
# SW-620 colon = system: SW-620 colon
# UACC-62 melanoma = system: UACC-62 melanoma
# SK-MEL-5 melanoma = system: SK-MEL-5 melanoma
# HS 578T breast = system: HS 578T breast
# OVCAR-3 ovarian = system: OVCAR-3 ovarian
# NCI-H23 lung = system: NCI-H23 lung
# RXF 393 renal = system: RXF 393 renal
# MOLT-4 leukemia = system: MOLT-4 leukemia
# K-562 leukemia = system: K-562 leukemia
SMILES,GI50 (MALME-3M melanoma) [µM],TGI (MALME-3M melanoma) [µM],GI50 (SW-620 colon) [µM],TGI (SW-620 colon) [µM],GI50 (UACC-62 melanoma) [µM],TGI (UACC-62 melanoma) [µM],GI50 (SK-MEL-5 melanoma) [µM],TGI (SK-MEL-5 melanoma) [µM],GI50 (HS 578T breast) [µM],TGI (HS 578T breast) [µM],GI50 (OVCAR-3 ovarian) [µM],GI50 (NCI-H23 lung) [µM],TGI (NCI-H23 lung) [µM],GI50 (RXF 393 renal) [µM],TGI (RXF 393 renal) [µM],GI50 (MOLT-4 leukemia) [µM],TGI (OVCAR-3 ovarian) [µM],TGI (K-562 leukemia) [µM],GI50 (K-562 leukemia) [µM],TGI (MOLT-4 leukemia) [µM]
CN1CCN(c2ccc(NC3=CC(=O)c4ncncc4C3=O)cc2)CC1,0.268,0.713,0.336,1.27,0.303,0.804,0.302,0.871,1.74,6.29,0.313,0.369,1.67,1.29,2.61,0.289,,,,
CCC(c1ccccc1)c1cc(C(C)(C)C)cc(C(C)(C)C)c1O (configuration not stated),,26.8,,30.5,,32.2,,32.7,,32.3,,,30.9,,34.2,,27.2,34,,
O=C(CI)Nc1ccc(Br)cc1,2.1,4.29,,,3.96,14.8,3.95,15.4,5.05,> 100,1.72,1.87,4.61,1.7,3.21,3.43,3.25,> 100,2.53,> 100
O=C1/C(=C/c2ccc(C(F)(F)F)cc2)COc2ccc(O)c(O)c21,1.55,3.3,,,1.48,2.87,1.73,3.21,2.2,6.02,0.514,1.61,3.21,1.6,3.05,,1.84,> 100,0.289,
O=C1C=CC(=O)c2c1nc(CBr)[nH]c2=O,,> 100,,,,> 100,,> 100,,> 100,,,> 100,,> 100,,> 100,> 100,,> 100
CCOCCOCCOCCOCCOCCOCCOCCOCCOCCO (tested in a mixture with another compound),3.65,9.23,1.56,8.17,,,0.586,1.81,1.81,9.59,0.476,0.957,5.32,1.85,8.88,0.628,4.63,,,1.69
C=C(C)C(=O)Nc1ccc(-c2c(-c3ccc(Oc4nccc(C)n4)c(F)c3)c3c(N)ncnc3n2C)cc1,3.29,17,8.7,25.9,,,2.36,8.21,1.09,4.1,4.77,4.27,18.4,0.0946,0.984,2.78,18.4,> 100,3.43,> 100
Fc1ccc(Nc2nc(Nc3ccc(-c4nc5ccccc5[nH]4)cc3)c3cn[nH]c3n2)cc1,1.72,3.51,2.03,4.24,,,9.94,21.9,2.12,5.35,1.94,,,1.67,3.4,2.55,4.42,7.41,3.04,5.63
Clc1ccc(-c2nc(NCc3ccco3)c3ccccc3n2)c(Cl)c1,12.9,32.4,,,13.9,32.7,13.9,30,14.2,46.4,11.6,17.1,60.5,20.4,43.1,9.16,29.7,60.4,8.7,> 100
COc1ccc2nc3ccccc3c(NCCCCN(CCCl)CCCl)c2c1,,0.725,,2.74,,1.42,,3.37,,> 22.1,,,2.09,,0.289,,,,,< 0.0369
CSc1nc(SC)c2c(C)cn(COCCOC(=O)c3ccccc3)c2n1,,> 100,,> 100,,> 100,,> 100,,> 100,,,> 100,,> 100,,> 100,,,> 100
COC(=O)c1cc2cc(/C=C3/SC(=S)N(N(C(C)=O)C(C)=O)C3=O)oc2n1Cc1ccccc1,,,41,> 100,14.4,33,25.7,62.7,24.2,76.6,19.5,21.4,44.6,22,56.7,59.9,51,53.7,22.7,> 100
O=C1C(Cl)=C(NCCCN(CCCNC2=C(Cl)C(=O)c3ccccc3C2=O)C2=C(Cl)C(=O)c3ccccc3C2=O)C(=O)c2ccccc21,1.62,3.29,2.21,4.9,1.98,4.69,1.18,2.43,2.88,> 100,1.71,1.69,5.26,10.7,22.5,,5.71,,,
